According to patent publication US20150285805A1, “BIOMARKERS OF MULTIPLE MYELOMA DEVELOPMENT AND PROGRESSION” (priority 2012, published 2015):

Legend:
T cells = conditions: cited from earlier work
[1] = cited from earlier work
MM cells = conditions: phosphocholine administration; cited from earlier work
[2] = system: microvascular endothelial cell; conditions: in vitro; cited from earlier work
OPM2 cells = experiment: MTT assay upon LPC supplementation; format: cell-based; conditions: 10 μM LPC, 72 h, with or without FCS; particularly upon serum starvation
Method: (§1) FIG. 5. Effects of LPC supplementation on MM cells viability. A) Viability of myeloma cell lines MM.1S or OPM2 or three samples of myeloma patient-derived CD138 positive cells upon 24 h incubation with vehicle or 10 μM LPC, as fold change of annexinV-propidium iodide double negative cells relative to vehicle alone. B) MTT assay of OPM2 cells upon 72 h supplementation with LPC, one representative experiment (n=6). Y axis: median 570-655 optic density (O.D.); error bars: standard deviation; asterisks: p<0.05 at two-tailed t-test for paired samples.
(§2) Myeloma cell lines (OPM2 and MM.1S) were cultured in RPMI1640 media (Gibco), supplemented with glutamax (1 mM), penicillin (100 U/ml), and streptomycin (100 μg/ml). Primary MM cells were obtained by CD138 positive immunomagnetic selection (Miltenyi) from bone marrow mononuclear cells. CD138^+ cells were cultured in 10% FBS and IL-6 (2 ng/ml). Apoptosis was detected by AnnexinV-PI (BD) cytometry (AccuriC6 cytometer, analyzed with FCS-express). For MTT assays, OPM2 cells were cultured with or without 10 μM LPC and FCS, incubated with 5 mg/ml MTT (Sigma), dissolved with DMSO and measured for ABS at 570-655 nm with an ELISA reader (Biorad).

[3] = system: myeloma patient-derived CD138 positive cells; experiment: AnnexinV-PI cytometry, apoptosis/viability upon LPC supplementation; format: cell-based; conditions: 10 μM LPC, 24 h, vs vehicle; three patient samples
Method: as §1, §2

OPM2 myeloma cell line = experiment: as above; format: cell-based; conditions: 10 μM LPC, 24 h, vs vehicle
Method: as §1, §2

MM.1S myeloma cell line = experiment: as above; format: cell-based; conditions: 10 μM LPC, 24 h, vs vehicle
Method: as §1, §2

Question: With `Nc1c(O)cccc1C(=O)CC(N)C(=O)O` (stereo not shown) [3-hydroxykynurenine] as the compound, how does the T cell depletion (T cells; in vitro and in vivo, transplanted mice) read?
Answer: The T cell depletion was “depleting in vitro and in vivo T cells”.

Question: And the mismatched allograft tolerance (T cells; mouse, in vivo)?
Answer: Its mismatched allograft tolerance is “promoting mismatched allograft tolerance”.

Question: For `CNCC(=O)O` [Sarcosine, Sarcosine (N-Methylglycine)], which “cancer-promoting in vitro activities” value [1] is on record?
Answer: The value was “induction of migration, invasiveness, and up-regulation of pathogenic receptors”.

Question: With `C[N+](C)(C)CCOP(=O)([O-])O` [phosphocholine] as the compound, how does the “rescue of MM cells from the mevalonate pathway inhibitor apomine” value (MM cells) read?
Answer: Its value is “can rescue MM cells”.

Question: With “C3f: fragment of the C3 complement factor, sequence SSKITHRIHWESASLLR; detected fragment HWESASLL (listed as Homo sapiens)” as the compound, how does the “IGF1 signaling and microvascular endothelial cell proliferation” value [2] read?
Answer: Its value is “actively modulate”.

Question: What about the “TGFβ-1 secretion by endothelial cells” value [2] of the same compound?
Answer: The value was “enhance TGFβ-1 secretion”.

Question: Which “viability (MTT, 570-655 O.D.)” value (OPM2 cells) does the source give for lysophosphocholines [LPC] here?
Answer: Its value is “increase viability”.

Question: And the “apoptosis (annexinV-propidium iodide)” value [3]?
Answer: The value was “decrease apoptosis”.

Question: What about the “apoptosis (annexinV-propidium iodide)” value (OPM2 myeloma cell line) of the same compound?
Answer: The value was “decrease apoptosis”.

Question: What about the “apoptosis (annexinV-propidium iodide)” value (MM.1S myeloma cell line) of the same compound?
Answer: The value was “decrease apoptosis”.
